# Laboratory results published in patent publication US11198695B2, “Fused ring derivative having MGAT-2 inhibitory activity” (Shionogi & Co., Ltd., priority 2017, dated 2021).
# Target: recombinant human MGAT2 (Homo sapiens (Human), UniProt Q3SYC2)
# Experiment: Measurement of human MGAT2 inhibitory activity
# Type: biochemical
# Details: read-out: IC50 (concentration exhibiting 50% enzyme inhibition), Table 52
# Protocol: A full-length human MGAT2 gene to which a Flag-tag had been added at the N-terminal was inserted into pFastBac (from Invitrogen). A recombinant baculovirus was produced in accordance with the protocol for a Bac-to-Bac baculovirus expression system (produced by Invitrogen), and Sf-9 cells were infected therewith. The cells were collected and sonicated, and then the membrane fraction was collected through centrifugation. Western blotting analysis with an anti-Flag antibody was performed for the membrane fraction to confirm expression, and the membrane fraction was used as a recombinant human MGAT2 enzyme solution.
# Solutions of the compounds of the present invention in DMSO were each aliquoted into 0.2-μL portions in a 384-well polystyrene microplate produced by Corning Incorporated, and 5 μL of an enzyme solution prepared with an assay buffer (100 mmol/L phosphate buffer (pH 7.4) containing 2 mmol/L DTT) and 5 μL of a substrate solution (100 mmol/L phosphate buffer (pH 7.4), 30 μmol/L 2-Oleoylglycerol, 10 μmol/L Oleoyl-CoA) were added thereto, and the resultant was stirred and centrifuged, and incubated in a moist chamber at room temperature for 1 hour. After enzymatic reaction, 50 μL of a quenching solution (containing 0.2 μmol/L Diolein-d5, 0.4% formic acid, and 50% isopropanol) containing Internal Standard (IS) was added to terminate the reaction, and the resultant was sealed in a plate produced by Shimadzu GLC Ltd., and then stirred and centrifuged, and measurement was performed by using an electrospray ionization method with a RapidFire360 and Agilent 6550 Q-TOF mass spectrometer. Diolein as a reaction product (P) of 2-Oleoylglycerol as the substrate and an ammonium adduct ion of the IS were detected, and the peak intensity ratio, P/IS, was calculated from the peak heights to evaluate the inhibitory activity. Inhibitory activities with/without addition of enzyme were defined as Control (+)/Control (−), respectively, and the respective % inhibitions were defined as 0% inhibition and 100% inhibition. The inhibitory activity was calculated from formula below with TIBCO Spotfire (produced by TIBCO Software Inc.): Inhibitory activity (%)=[1−{Sample−Control(−)}/{Control(+)−Control(−)}]*100 where Sample indicates a peak intensity ratio: P/IS, when the compound of the present invention was added.
# recombinant human MGAT2, sequence (Q3SYC2 whole entry): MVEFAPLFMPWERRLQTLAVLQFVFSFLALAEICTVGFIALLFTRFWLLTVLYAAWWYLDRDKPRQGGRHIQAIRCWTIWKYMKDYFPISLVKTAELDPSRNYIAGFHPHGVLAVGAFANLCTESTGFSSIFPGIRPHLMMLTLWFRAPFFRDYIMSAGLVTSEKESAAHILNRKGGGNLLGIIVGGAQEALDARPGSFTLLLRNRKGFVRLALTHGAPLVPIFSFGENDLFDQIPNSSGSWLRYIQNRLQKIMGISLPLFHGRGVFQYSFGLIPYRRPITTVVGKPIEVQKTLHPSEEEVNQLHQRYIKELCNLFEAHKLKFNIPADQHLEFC
row,SMILES,IC50 [nM]
1,O=C(Nc1nn(CCC2CC2)c2c1C(=O)N[C@@]1(CCc3cc(OCCCC(F)(F)F)ccc31)C2)c1ccno1 [Compound I-1],540
2,CS(=O)(=O)CC(=O)Nc1c2c(nn1CCC1CC1)C[C@]1(CCc3cc(OCCCC(F)(F)F)ccc31)NC2=O [Compound I-2],1.35
3,CS(=O)(=O)CC(=O)Nc1c2c(nn1CCC1CC1)C[C@]1(CCc3cc(C4CC4)ccc31)NC2=O [Compound I-3],9.22
4,CC(=O)Nc1c2c(nn1CCC1CC1)C[C@]1(CCc3cc(OCCCC(F)(F)F)ccc31)NC2=O [Compound I-4],330
5,CS(=O)(=O)CC(=O)Nc1nn(CCC2CC2)c2c1C(=O)N[C@@]1(CCc3cc(OCCCC(F)(F)F)ccc31)C2 [Compound I-5],500
6,CS(=O)(=O)CC(=O)Nc1c2c(nn1CCC1CC1)C[C@]1(CCc3cc(C(F)(F)F)ccc31)NC2=O [Compound I-6],11.9
7,CS(=O)(=O)CC(=O)Nc1c2c(nn1CCC1CC1)C[C@]1(CCc3cc(OCC(F)F)ccc31)NC2=O [Compound I-7],15
8,O=C1N[C@@]2(CCc3cc(OCCCC(F)(F)F)ccc32)Cc2nn(CCC3CC3)c(C(=O)O)c21 [Compound I-9],70
9,CNC(=O)c1c2c(nn1CCC1CC1)C[C@]1(CCc3cc(OCCCC(F)(F)F)ccc31)NC2=O [Compound I-11],500
10,CNS(=O)(=O)Nc1c2c(nn1CCC1CC1)C[C@]1(CCc3cc(OCCCC(F)(F)F)ccc31)NC2=O [Compound I-13],90
11,CC(C)NC(=O)Nc1c2c(nn1CCC1CC1)C[C@]1(CCc3cc(OCCCC(F)(F)F)ccc31)NC2=O [Compound I-14],380
12,COc1ccccc1C(=O)Nc1c2c(nn1CCC1CC1)C[C@]1(CCc3cc(OCCCC(F)(F)F)ccc31)NC2=O [Compound I-15],280
13,O=C(Nc1c2c(nn1CCC1CC1)C[C@]1(CCc3cc(OCCCC(F)(F)F)ccc31)NC2=O)c1ccc(F)cc1 [Compound I-16],150
14,COc1cccc(C(=O)Nc2c3c(nn2CCC2CC2)C[C@]2(CCc4cc(OCCCC(F)(F)F)ccc42)NC3=O)c1 [Compound I-17],160
15,O=C(Nc1c2c(nn1CCC1CC1)C[C@]1(CCc3cc(OCCCC(F)(F)F)ccc31)NC2=O)c1ccno1 [Compound I-18],9.1
16,O=C(Nc1c2c(nn1CCC1CC1)C[C@]1(CCc3cc(OCCCC(F)(F)F)ccc31)NC2=O)c1ccccc1 [Compound I-19],38
17,O=C(CC(F)F)Nc1c2c(nn1CCC1CC1)C[C@]1(CCc3cc(OCCCC(F)(F)F)ccc31)NC2=O [Compound I-20],21
18,CS(=O)(=O)CC(=O)NCc1c2c(nn1CCC1CC1)C[C@]1(CCc3cc(OCCCC(F)(F)F)ccc31)NC2=O [Compound I-21],17
19,CS(=O)(=O)NCc1c2c(nn1CCC1CC1)C[C@]1(CCc3cc(OCCCC(F)(F)F)ccc31)NC2=O [Compound I-22],190
20,N#CCC(=O)Nc1c2c(nn1CCC1CC1)C[C@]1(CCc3cc(OCCCC(F)(F)F)ccc31)NC2=O [Compound I-25],49
21,O=C(CC(F)(F)F)Nc1c2c(nn1CCC1CC1)C[C@]1(CCc3cc(OCCCC(F)(F)F)ccc31)NC2=O [Compound I-26],15
22,O=C(CN1CCCC1=O)Nc1c2c(nn1CCC1CC1)C[C@]1(CCc3cc(OCCCC(F)(F)F)ccc31)NC2=O [Compound I-27],600
23,CC(=O)NCC(=O)Nc1c2c(nn1CCC1CC1)C[C@]1(CCc3cc(OCCCC(F)(F)F)ccc31)NC2=O [Compound I-28],435
24,COCC(=O)Nc1c2c(nn1CCC1CC1)C[C@]1(CCc3cc(OCCCC(F)(F)F)ccc31)NC2=O [Compound I-29],113
25,Cn1cc(CC(=O)Nc2c3c(nn2CCC2CC2)C[C@]2(CCc4cc(OCCCC(F)(F)F)ccc42)NC3=O)cn1 [Compound I-30],175
26,CNS(=O)(=O)CC(=O)Nc1c2c(nn1CCC1CC1)C[C@]1(CCc3cc(OCCCC(F)(F)F)ccc31)NC2=O [Compound I-31],3.2
27,O=C(COC(F)(F)F)Nc1c2c(nn1CCC1CC1)C[C@]1(CCc3cc(OCCCC(F)(F)F)ccc31)NC2=O [Compound I-32],17

row,SMILES,IC50 [nM]
1,CS(=O)(=O)CC(=O)Nc1c2c(nn1-c1ccc(OC(F)(F)F)cc1)C[C@]1(CCc3cc(OCCCC(F)(F)F)ccc31)NC2=O [Compound I-33],14.7
2,CS(=O)(=O)CC(=O)Nc1c2c(nn1CCC1CC1)C[C@]1(CCc3cc(CCC(F)(F)F)ccc31)NC2=O [Compound I-35],6.8
3,CS(=O)(=O)CC(=O)Nc1c2c(nn1CCC1CC1)C[C@]1(CCc3cc(Br)ccc31)NC2=O [Compound I-36],27
4,CS(=O)(=O)Nc1c2c(nn1CCC1CC1)C[C@]1(CCc3cc(OCCCC(F)(F)F)ccc31)NC2=O [Compound I-38],625
5,CS(=O)(=O)CC(=O)Nc1c2c(nn1-c1cccc3ccccc13)C[C@]1(CCc3cc(OCCCC(F)(F)F)ccc31)NC2=O [Compound I-39],930
6,CS(=O)(=O)CC(=O)Nc1c2c(nn1C1CCCCC1)C[C@]1(CCc3cc(OCCCC(F)(F)F)ccc31)NC2=O [Compound I-40],18
7,CS(=O)(=O)CC(=O)Nc1c2c(nn1-c1cccc3c1CCC3)C[C@]1(CCc3cc(OCCCC(F)(F)F)ccc31)NC2=O [Compound I-41],79
8,Cc1ccc(-n2nc3c(c2NC(=O)CS(C)(=O)=O)C(=O)N[C@@]2(CCc4cc(OCCCC(F)(F)F)ccc42)C3)cc1 [Compound I-42],2.5
9,CS(=O)(=O)CC(=O)Nc1c2c(nn1-c1ccc(S(C)(=O)=O)cc1)C[C@]1(CCc3cc(OCCCC(F)(F)F)ccc31)NC2=O [Compound I-43],340
10,CS(=O)(=O)CC(=O)Nc1c2c(nn1-c1ccc(C#N)cc1)C[C@]1(CCc3cc(OCCCC(F)(F)F)ccc31)NC2=O [Compound I-44],3.9
11,Cn1c(-n2nc3c(c2NC(=O)CS(C)(=O)=O)C(=O)N[C@@]2(CCc4cc(OCCCC(F)(F)F)ccc42)C3)nc2ccccc21 [Compound I-45],41.5
12,CN(C)CCn1nc2c(c1NC(=O)CS(C)(=O)=O)C(=O)N[C@@]1(CCc3cc(OCCCC(F)(F)F)ccc31)C2 [Compound I-46],440
13,CS(=O)(=O)CC(=O)Nc1c2c(nn1CCN1CCCC1)C[C@]1(CCc3cc(OCCCC(F)(F)F)ccc31)NC2=O [Compound I-47],265
14,Cc1ccc(-n2nc(NC(=O)CS(C)(=O)=O)c3c2C[C@]2(CCc4cc(OCCCC(F)(F)F)ccc42)NC3=O)cc1 [Compound I-48],195
15,CS(=O)(=O)CC(=O)Nc1c2c(nn1CCC1CC1)C[C@]1(CCOc3cc(OCC(F)(F)F)ccc31)NC2=O [Compound I-49],1.9
16,CS(=O)(=O)CC(=O)Nc1c2c(nn1CCCc1ccccc1)C[C@]1(CCc3cc(OCCCC(F)(F)F)ccc31)NC2=O [Compound I-50],190
17,CCCCn1nc2c(c1NC(=O)CS(C)(=O)=O)C(=O)N[C@@]1(CCc3cc(OCCCC(F)(F)F)ccc31)C2 [Compound I-51],16
18,CS(=O)(=O)CC(=O)Nc1c2c(nn1CCc1ccccc1)C[C@]1(CCc3cc(OCCCC(F)(F)F)ccc31)NC2=O [Compound I-52],24
19,CS(=O)(=O)CC(=O)Nc1c2c(nn1CCOCC(F)F)C[C@]1(CCc3cc(OCCCC(F)(F)F)ccc31)NC2=O [Compound I-53],13
20,CCCn1nc2c(c1NC(=O)CS(C)(=O)=O)C(=O)N[C@@]1(CCc3cc(OCCCC(F)(F)F)ccc31)C2 [Compound I-54],48
21,CS(=O)(=O)CC(=O)Nc1c2c(nn1CC1CCCO1)C[C@]1(CCc3cc(OCCCC(F)(F)F)ccc31)NC2=O (stereo partly shown) [Compound I-56],25
22,CS(=O)(=O)CC(=O)Nc1c2c(nn1CCC1CCCCC1)C[C@]1(CCc3cc(OCCCC(F)(F)F)ccc31)NC2=O [Compound I-57],10
23,COCCCn1nc2c(c1NC(=O)CS(C)(=O)=O)C(=O)N[C@@]1(CCc3cc(OCCCC(F)(F)F)ccc31)C2 [Compound I-58],5.5
24,CS(=O)(=O)CC(=O)Nc1c2c(nn1CCn1cccn1)C[C@]1(CCc3cc(OCCCC(F)(F)F)ccc31)NC2=O [Compound I-59],14
25,CS(=O)(=O)CC(=O)Nc1c2c(nn1CCOC(F)(F)F)C[C@]1(CCc3cc(OCCCC(F)(F)F)ccc31)NC2=O [Compound I-60],94
26,CS(=O)(=O)CC(=O)Nc1c2c(nn1CC1CCC(C(F)(F)F)CC1)C[C@]1(CCc3cc(OCCCC(F)(F)F)ccc31)NC2=O (stereo partly shown) [Compound I-61],340
27,CS(=O)(=O)CC(=O)Nc1nn(CCCc2ccccc2)c2c1C(=O)N[C@@]1(CCc3cc(OCCCC(F)(F)F)ccc31)C2 [Compound I-62],250

# Same assay, conditions: read-out: IC50 (concentration exhibiting 50% enzyme inhibition), Table 53
row,SMILES,IC50 [nM]
1,"Cc1ccc(-n2nc3c(c2NC(=O)CS(C)(=N)=O)C(=O)N[C@@]2(CCc4cc(OCC(F)(F)F)ccc42)C3)nc1 (single isomer, unassigned) [II-275]",6.15
